Data on 10 compounds can be found in ChEMBL document CHEMBL1687815, “In vivo selection of a missense mutation in adeR and conversion of the novel blaOXA-164 gene into blaOXA-58 in carbapenem-resistant Acinetobacter baumannii isolates from a hospitalized patient” (2010).

In brackets after ≈: the same amount, converted by molar mass. Activity calls are given as the source filed them. Bounds are passed on as bounds.

Experiment [1] relates to Acinetobacter baumannii. The experiment is described as follows: Antimicrobial activity against Acinetobacter baumannii isolate M expressing beta-lactamase OXA-58 isolated from tracheal secretion of patient by vitek 2 system.
The test system of experiment [2] is Acinetobacter baumannii. In words: Antimicrobial activity against Acinetobacter baumannii isolate I expressing beta-lactamase OXA-58 isolated from tracheal secretion of patient by vitek 2 system.
The subject of experiment [3] is Acinetobacter baumannii. The experiment is described as follows: Antimicrobial activity against Acinetobacter baumannii isolate H expressing beta-lactamase OXA-58 isolated from tracheal secretion of patient by vitek 2 system.
In experiment [4] the test system is Acinetobacter baumannii. The experiment is described as follows: Antimicrobial activity against Acinetobacter baumannii isolate A expressing beta-lactamase OXA-164 isolated from tracheal secretion of patient by vitek 2 system.
The subject of experiment [5] is Acinetobacter baumannii. The experiment is described as follows: Antimicrobial activity against Acinetobacter baumannii isolate C expressing beta-lactamase OXA-164 isolated from tracheal secretion of patient by vitek 2 system.
Experiment [6] deals with Acinetobacter baumannii. In words: Antimicrobial activity against Acinetobacter baumannii isolate F expressing beta-lactamase OXA-164 isolated from tracheostoma of patient by vitek 2 system.
Experiment [7] concerns Acinetobacter baumannii. In words: Antimicrobial activity against Acinetobacter baumannii isolate L expressing beta-lactamase OXA-58 isolated from tracheal secretion of patient by vitek 2 system.
In experiment [8] the test system is Acinetobacter baumannii. In words: Antimicrobial activity against Acinetobacter baumannii isolate J expressing beta-lactamase OXA-58 isolated from bedsore by vitek 2 system.
Experiment [9] has as its system Acinetobacter baumannii. The experiment is described as follows: Antimicrobial activity against Acinetobacter baumannii isolate D expressing beta-lactamase OXA-164 isolated from tracheal secretion of patient by vitek 2 system.
Experiment [10] concerns Acinetobacter baumannii. In words: Antimicrobial activity against Acinetobacter baumannii isolate E expressing beta-lactamase OXA-164 isolated from tracheal secretion of patient by vitek 2 system.
The subject of experiment [11] is Acinetobacter baumannii. The experiment is described as follows: Antimicrobial activity against Acinetobacter baumannii isolate B expressing beta-lactamase OXA-164 isolated from tracheal secretion of patient by vitek 2 system.
Experiment [12] concerns Acinetobacter baumannii. The experiment is described as follows: Antimicrobial activity against Acinetobacter baumannii isolate G expressing beta-lactamase OXA-58 isolated from tracheal secretion of patient by vitek 2 system.
Experiment [13] concerns Acinetobacter baumannii. The experiment is described as follows: Antimicrobial activity against Acinetobacter baumannii isolate K expressing beta-lactamase OXA-58 isolated from blood culture of patient by vitek 2 system.

In the case of COLISTIN, the MIC in [1], in [2], in [3], in [4], in experiment [5] and in experiment [6] was below 1 µg/mL each time. Besides, the MIC in [7], in experiment [8], in experiment [9], in experiment [10], in [11] and in experiment [12] was below 1 µg/mL in each case. The MIC in experiment [13] is below 1 µg/mL.
As for `O=C(O)c1cn(C2CC2)c2cc(N3CCNCC3)c(F)cc2c1=O`, the MIC result in [1], in experiment [2], in experiment [3], in experiment [4], in [5] and in [7] was “inactive” in each case. The MIC entry in [8], in experiment [9], in [10], in experiment [11], in experiment [12] and in experiment [13] was “inactive” in each case.
Regarding `CO/N=C(\C(=O)N[C@@H]1C(=O)N2C(C(=O)O)=C(COC(C)=O)CS[C@H]12)c1csc(N)n1`, the MIC result in experiment [1], in [2], in [3], in experiment [4], in experiment [5] and in experiment [6] was “inactive” each time. The MIC result in [7], in experiment [8], in experiment [9], in [10], in experiment [11] and in [12] was “inactive” in each case. In addition, the MIC result in experiment [13] was “inactive”.
`CO/N=C(\C(=O)N[C@@H]1C(=O)N2C(C(=O)[O-])=C(C[N+]3(C)CCCC3)CS[C@H]12)c1csc(N)n1`: the MIC result in experiment [1], in experiment [2], in [3], in experiment [4], in experiment [5] and in [6] was “inactive” throughout. Further, the MIC result in [7], in experiment [8], in experiment [9], in experiment [10], in [11] and in experiment [12] was “inactive” in each case. For the same compound, in [13], the MIC result was “inactive”.
On to `CC(C)(O/N=C(\C(=O)N[C@@H]1C(=O)N2C(C(=O)[O-])=C(C[n+]3ccccc3)CS[C@H]12)c1csc(N)n1)C(=O)O`, for which the MIC result in experiment [1], in experiment [2], in [3], in experiment [4], in experiment [5] and in experiment [6] was “inactive” in each case. The MIC result in [7], in experiment [8], in [9], in experiment [10], in experiment [11] and in experiment [12] was “inactive” each time. Also, the MIC entry in [13] was “inactive”.
On to `COc1c(N2C[C@@H]3CCCN[C@@H]3C2)c(F)cc2c(=O)c(C(=O)O)cn(C3CC3)c12`, for which the MIC result in experiment [1], in experiment [2], in experiment [3], in [4], in experiment [5] and in experiment [6] was “inactive” each time. The MIC result in experiment [7], in experiment [8], in [9], in experiment [10], in experiment [11] and in experiment [12] was “inactive” each time. In addition, in experiment [13], the MIC result is “inactive”.
For `C[C@@H]1O[C@@H]1P(=O)(O)O`, the MIC result in [1], in [2], in [3], in experiment [4], in experiment [5] and in experiment [6] was “inactive” in each case. In addition, the MIC result in experiment [7], in [8], in experiment [9], in experiment [10], in experiment [11] and in [12] was “inactive” each time. For the same compound, the MIC entry in [13] is “inactive”.
For the compound `CO[C@@]1(NC(=O)Cc2cccs2)C(=O)N2C(C(=O)O)=C(COC(N)=O)CS[C@@H]21`, the MIC entry in [1], in experiment [2], in [3], in experiment [4], in [5] and in experiment [6] was “inactive” in each case. In addition, the MIC result in [7], in [8], in [9], in [10], in experiment [11] and in experiment [12] was “inactive” in each case. Besides, the MIC entry in experiment [13] was “inactive”.
Turning to GENTAMICIN, the MIC entry in experiment [1], in experiment [2], in experiment [3], in experiment [4], in experiment [5] and in experiment [6] was “inactive” throughout. Also, the MIC result in [7], in experiment [8], in experiment [9], in experiment [10], in experiment [11] and in [12] was “inactive” each time. Besides, the MIC result in [13] was “inactive”.
As for `NCC[C@H](O)C(=O)N[C@@H]1C[C@H](N)[C@@H](O[C@H]2O[C@H](CN)[C@@H](O)[C@H](O)[C@H]2O)[C@H](O)[C@H]1O[C@H]1O[C@H](CO)[C@@H](O)[C@H](N)[C@H]1O` [AMIKACIN], the MIC was at least 64 µg/mL in [1]; at least 64 µg/mL in experiment [2]; at least 64 µg/mL in experiment [3]; at least 64 µg/mL in [4]; 32 µg/mL (≈ 54.6 µM) in experiment [5]; at least 64 µg/mL in experiment [6]. For the same compound, the MIC in experiment [7] was at least 64 µg/mL; in experiment [8] it was at least 64 µg/mL; in experiment [9] it was at most 2 µg/mL; in [10], at most 2 µg/mL; in experiment [11], at least 64 µg/mL; in experiment [12], at least 64 µg/mL. In experiment [13], this compound gave an MIC of at least 64 µg/mL.

Broadly, the MIC is the smallest concentration in the dilution series that meets the test's criterion for growth inhibition.
